The text below walks through data of PMC4391943, “Novel Epigallocatechin-3-Gallate (EGCG) Derivative as a New Therapeutic Strategy for Reducing Neuropathic Pain after Chronic Constriction Nerve Injury in Mice” (PLoS ONE, 2015).

For one data set, the system named is NMDAR2B. The data set can be described thus: Western blot of NMDAR2B in the synaptic plasma membrane fraction of the dorsal horn. Type of data set: in vivo, mice. Particulars: 50 mg/Kg, 56 dpi. On the procedure: Subcellular fractionation was obtained by differential centrifugation as described elsewhere. Briefly, tissue was homogenized in lysis buffer (10 mM Tris-HCl pH 7.5, 1 mM EDTA, 1 mM Na3VO4, 0.25 M sucrose, 2 mM PMSF, 1 μg/μL aprotinin, 1 μg/μL leupeptin, 2 mM sodium orthovanadate). The homogenate was centrifuged at 2,000 × g for 10 min at 4°C to separate the nuclei fraction (P1). The P1 was resuspended in lysis buffer. The resulting supernatant was centrifuged at 10,000×g for 15 min at 4°C to obtain a crude membrane fraction (P2). The P2 was resuspended and incubated in the lysis buffer containing 0.5% Triton X-100 for 15 min, and then centrifuged at 25,000 × g for 20 min to obtain the synaptosomal membrane fraction (P3). Finally, the P3 was resuspended in lysis buffer and centrifuged on a discontinuous sucrose gradient (0.8 M, 1 M and 1.2 M) at 150,000×g for 2 h. Synaptic plasma membrane (SPM) was collected from the 1:1.2 M interface and resuspended in 50 mM HEPES, 2 mM EDTA, 1 mM PMSF, 10 μg/ml aprotinin, 1 μg/ml leupeptin and 2 mM sodium orthovanadate.
Western blotting was performed as previously described. The following primary antibodies were used: anti-FASN (1:1000, BD Bioscience, San Jose, CA); anti-TNF-α, anti-IL-1β, anti-IL-6 and anti-NFκB (all 1:500, Santa Cruz Biotechnology, Santa Cruz, CA); anti-phosphoNMDAR2B (Tyr1472) (1:2000, Affinity Bioreagents, Golden, CO) and anti-NMDAR2B (1:1000, Chemicon, Temecula, CA). Loading control was performed by reprobing the membranes with anti-actin (1:10,000; MP Biochemicals, Aurora, OH), anti-NeuN (1:1,000; Chemicon) or anti-N-cadherin (1:1000, BD Bioscience). Membranes were incubated with the corresponding horseradish peroxidase-conjugated antibody (1:2,000; Promega, Madison, WI). Immunoreactive bands were visualized using the Western Blotting Luminol Reagent and quantified by a computer-assisted densitometer (Gel-Pro Analyzer, version 4, Media Cybernetics).

The subject of another data set is CCI-mice. The data set can be described thus: Thermal hyperalgesia (plantar heat / Hargreaves test), paw withdrawal latency after chronic constriction injury. Type of data set: in vivo. Particulars: for latency to paw withdrawal to a thermal stimulus: mean ± SEM, n = 5; for time-dependent effect on thermal paw withdrawal latency vs vehicle: 50 mg/Kg i.p., assessed weekly from 7 to 56 dpi, n = 15 (Fig 1). On the procedure: The chronic constriction injury (CCI) followed the procedure described elsewhere. Animals were anesthetized with sodium pentobarbital (50 mg/kg; i.p.), an incision was made in the right thigh, and the sciatic nerve was exposed. Two loose ligatures with 1 mm apart were then made around the nerve using the 6–0 poly-glycolic acid synthetic absorbable sutures. The incision was closed using 5–0 interrupted nylon sutures. A control group was included with sham surgery where the right sciatic nerve was exposed but not further manipulated.
For dose response studies, EGCG and the two synthetic EGCG derivatives compound 23 and compound 30 were administered by intra-peritoneal injection at 10, 30, 50 and 100 mg/Kg (n = 5 mice/compound/dose), 30 minutes after the CCI. To analyze the time-dependent effect EGCG and the two synthetic EGCG derivatives compound 23 and compound 30 were administered by intra-peritoneal injection at 50 mg/Kg (n = 15 mice/compound), 30 minutes after the CCI. Another set of animals were used to study the effect of 50 mg/kg of EGCG and the two synthetic EGCG derivatives compound 23 and compound 30 at 14 dpi (n = 15 mice/compound). In all cases, the administration was daily repeated during the first week. All compounds were dissolved in DMSO/saline solution (1:9; v/v), used as vehicle group.
To measure changes in thermal sensation we used the plantar heat test (Ugo Basile, Italy) as previously described. Briefly, mice were acclimated 5 days (15 min/day) prior to CCI. At 7, 14, 21, 28, 35, 42, 49 and 56 dpi, mice were enclosed in a clear Plexiglas box. After 15 min, during which the animals were provided with free exploration to habituate to the apparatus, infrared light beam was applied to the plantar surface of the […], and paw withdrawal latency was recorded in seconds. The infrared stimulus application automatically shut off at 30 seconds to avoid tissue damage. Four trials were measured randomly for right […] with at least 2 minutes between each trial.

Data set [1] in a line: Serum stability study, human serum. The settings on record: 37°C, 75% serum, 0.5 mM compound; for half-life at 0.5 mM: human serum (75% final serum content), read-out: half-life (t1/2) (converted). Type of data set: in vitro ADME. On the procedure: Peptide stabilities were assayed in diluted serum as previously described. Human serum (Sigma, S7023) or mouse serum (Europa Bioproducts, EQSM-0100) were incubated at 37°C for 10 min. The assay was initiated upon the addition of the test compound solved in PBS to the serum (75% final serum content) for a final compound concentration of 0.5 mM. Then, 500 µL aliquots of the incubations were taken for the following time points: 0, 15, 30, 60, 120 and 240 min. The aliquots were mixed with 750 µL of cold acetonitrile (ACN) and incubated at 4°C for 10 min to precipitate serum proteins. The supernatant was collected for each sample after centrifugation at 39,000 g for 10 min and were immediately analyzed by high performance liquid chromatography-mass spectrometry (HPLC-MS).

The mark [2] stands for this setting: 10 mg/Kg i.p. daily first week post-CCI, 7 dpi.
[3] abbreviates: 10 mg/Kg i.p. daily first week post-CCI, 21 dpi.
Where [4] appears, read: 30 mg/Kg i.p. daily first week post-CCI, 7 dpi.
The mark [5] stands for this setting: 30 mg/Kg i.p. daily first week post-CCI, 21 dpi.
The mark [6] stands for this setting: 50 mg/Kg i.p. daily first week post-CCI, 7 dpi.
Where [7] appears, read: 50 mg/Kg i.p. daily first week post-CCI, 21 dpi.
Setting [8] is: 100 mg/Kg i.p. daily first week post-CCI, 7 dpi.
Setting [9] is: 100 mg/Kg i.p. daily first week post-CCI, 21 dpi.

As to `O=C(Oc1cccc2c(OC(=O)c3cc(O)c(O)c(O)c3)cccc12)c1cc(O)c(O)c(O)c1` [Compound 23, 1,5-Bis [(3,4,5-trihydroxybenzoyl)oxy] naphthalene], the “protein levels of NMDAR2B in the synaptic plasma membrane (SPM)” value (from here on “protein levels of NMDAR2B”) in the data set on NMDAR2B is on record as “did not result in changes”. In addition, the “latency to paw withdrawal to a thermal stimulus” value (from here on “latency to paw withdrawal”) worked out at 4.07 ± 0.31 s in the data set with CCI-mice (setting [2]); 3.89 ± 0.43 s with CCI-mice (setting [3]); 4.57 ± 0.29 s with CCI-mice (setting [4]); 3.77 ± 0.59 s in the data set on CCI-mice (setting [5]); 4.38 ± 0.3 s with CCI-mice (setting [6]); 3.93 ± 0.24 s in the data set on CCI-mice (setting [7]). Besides, the entries for the “latency to paw withdrawal” value in the data set with CCI-mice (setting [8]) and in the data set with CCI-mice (setting [9]) were 4.41 ± 0.27 s and 3.71 ± 0.29 s, respectively. Besides, the “time-dependent effect on thermal paw withdrawal latency vs vehicle” value (“time-dependent effect … vs vehicle” for short) in the data set on CCI-mice was “did not detect differences at any time point analyzed”. Also, the half-life at 0.5 mM in data set [1] was 1.4 h.

On to `O=C(Oc1ccc(-c2ccc(OC(=O)c3cc(O)c(O)c(O)c3)cc2)cc1)c1cc(O)c(O)c(O)c1` [Compound 30, 4,4′-Bis [(3,4,5-trihydroxybenzoyl)oxy]-1,1′-biphenyl], for which, in the data set with NMDAR2B, the “protein levels of NMDAR2B” value is listed as “specific decrease”. Also, the “latency to paw withdrawal” value in the data set on CCI-mice (setting [2]) came out at 3.71 ± 0.39 s; in the data set on CCI-mice (setting [3]), 4.11 ± 0.51 s; in the data set on CCI-mice (setting [4]), 3.93 ± 0.37 s; with CCI-mice (setting [5]) it was 4.33 ± 0.57 s; with CCI-mice (setting [6]), 4.31 ± 0.3 s; in the data set with CCI-mice (setting [7]), 7.61 ± 0.67 s. Further, the “latency to paw withdrawal” value in the data set on CCI-mice (setting [8]) came out at 4.79 ± 0.44 s; with CCI-mice (setting [9]) it was 6.49 ± 0.53 s. Further, in the data set with CCI-mice, the “time-dependent effect … vs vehicle” value is “augmentation in the paw withdrawal latency from 14 to 56 dpi”. The half-life at 0.5 mM in data set [1] was 1.9 h.

With epigallocatechin-3-gallate [EGCG], the “protein levels of NMDAR2B” value in the data set with NMDAR2B is “did not result in changes”. Besides, the “latency to paw withdrawal” value in the data set on CCI-mice (setting [2]) amounted to 3.93 ± 0.33 s; with CCI-mice (setting [3]) it was 3.83 ± 0.23 s; in the data set with CCI-mice (setting [4]) it was 5.01 ± 0.35 s; in the data set on CCI-mice (setting [5]) it was 4.28 ± 0.45 s; with CCI-mice (setting [6]), 13.01 ± 1.02 s; in the data set with CCI-mice (setting [7]), 8.58 ± 0.9 s. Besides, the figures for the “latency to paw withdrawal” value with CCI-mice (setting [8]) and in the data set with CCI-mice (setting [9]) were 9.38 ± 0.66 s and 6.15 ± 0.42 s, respectively. Also, the “time-dependent effect … vs vehicle” value in the data set with CCI-mice was “increase in paw withdrawal latency in CCI-mice treated with EGCG from 7 to 21 dpi”. For the same molecule, the “half-life (t1/2)” value in data set [1] is given as < 0,1 h.
